Results on 23 compounds are retold here after patent publication US9125904B1, “Biphenyl imidazoles and related compounds useful for treating HCV infections” (ACHILLION PHARMACEUTICALS, INC., priority 2010, dated 2015).

The first test relates to HCV replicon. Put plainly: HCV replicon replication assay (NPT ELISA). Format: cell-based. Conditions: Hepatitis C virus, 72 h; Huh-7 HCV replicon-containing cells, three days; class symbols; read-out: EC50. The procedure: Compounds claimed herein are tested for the ability to inhibit viral replication of the Hepatitis C replicon in cultured cells in which the HCV replicon construct has been incorporated. The HCV replicon system was described by Bartenschlager, et. al (Science, 285, pp. 110-113 (1999)). The replicon system is predictive of in vivo anti-HCV activity; compounds that are active in humans uniformly evidence activity in the replicon assay.
In this assay HCV replicon containing cells are treated with different concentrations of the test compound to ascertain the ability of the test compound to suppress replication of the HCV replicon. As a positive control, HCV replicon-containing cells are treated with different concentrations of interferon alpha, a known inhibitor of HCV replication. The replicon assay system includes Neomycin Phosphotransferase (NPT) as a component of the replicon itself in order to detect the transcription of replicon gene products in the host cell. Cells in which the HCV replicon is actively replicating have high levels of NPT; the level of NPT is proportional to HCV replication. […] The NPT level of each sample is measured using a captured ELISA.
A protocol for testing compounds for the ability to inhibit viral replication of the Hepatitis C replicon cultured cells in which the replicon construct has been incorporated, follows.
The HCV replicon contains, 5′-3′, the HCV-IRES, the neomycin phosphotransferase (neo) gene, the IRES of encephalomyocarditis virus, which directs translation of HCV sequences NS3 to NS5B, and the 3′-NTR. The sequence of the HCV replicon has been deposited in GenBank (Accession no. AJ242652).
The replicon is transfected into Huh-7 cells using standard methods such as electroporation.
The equipment and materials include, but are not limited to, Huh-7 HCV replicon-containing cells, maintenance media (DMEM (Dulbecco's modified Eagle media) supplemented with 10% FBS, L-glutamine, non-essential amino acids, penicillin (100 units/ml), streptomycin (100 micrograms/ml), and 500 micrograms/ml of Geneticin (G418), screening media (DMEM supplemented with 10% FBS, L-glutamine, non-essential amino acids, penicillin (100 units/ml) and streptomycin (100 micrograms/ml)), 96 well tissue culture plates (flat bottom), 96 well plates (U bottom for drug dilution), Interferon alpha for positive control, fixation reagent (such as methanol: acetone), primary antibody (rabbit anti-NPTII), secondary antibody: Eu-N1 1, and enhancement solution.
HCV replicon-containing cells support high levels of viral RNA replicon replication when their density is suitable. Over-confluency causes decreased viral RNA replication. Therefore, cells must be kept growing in log phase in the presence of 500 micrograms/ml of G418. Generally, cells should be passed twice a week at 1: 4-6 dilution. Cell maintenance is conducted as follows:
HCV replicon-containing cells are examined under a microscope to ensure that cells growing well. Cells are rinsed once with PBS and 2 ml trypsin is added. The cell/trypsin mixture is incubated at 37° C. in a CO2 incubator for 3-5 minutes. After incubation 10 ml of complete media is added to stop the trypsinization reaction. Cells are blown gently, put into a 15 ml tube, and spun at 1200 rpm for 4 minutes. The trypsin/medium solution is removed. Medium (5 ml) is added and the cells are mixed carefully. The cells are counted.
The cells are then seeded onto 96-well plates at a density of 6000-7500 cells/100 microliters/well (6−7.5×10^5 cells/10 ml/plate). The plates are then incubated at 37° C. in a 5% CO2 incubator.
Cells are examined under a microscope approximated 24 hours after seeding and prior to adding drugs. If counting and dilution were performed correctly, cells are 60-70% confluent and nearly all cells should attach and spread evenly in the well.
HCV replicon-containing cells are rinsed with once PBS once; 2 mls of trypsin are then added. Cells are incubated at 37° C. in a 5% CO2 incubator for 3-5 minutes. […]
(In antiviral work, replicon cells carry a viral genome segment that copies itself.)
As a reminder, the EC50 is the concentration needed to bring the measured effect to its halfway point. `CCCS(=O)(=O)N1CCN(Cc2ccc(NC(=O)c3ccc(-c4ccc(-c5c[nH]c([C@@H]6CCCN6C(=O)OC(C)(C)C)n5)cc4)cc3)cc2)CC1` [Compound 18, (S)-tert-butyl 2-(4-(4′-(4-((4-(propylsulfonyl)piperazin-1-yl)methyl)phenylcarbamoyl)biphenyl-4-yl)-1H-imidazol-2-yl)pyrrolidine-1-carboxylate]: the EC50 was < 50 nM. Still for that read-out and setting: the result for `COC(=O)N[C@H](C(=O)N1C2CC(CN(C)C2)C1c1nc(-c2ccc(-c3ccc(-c4cnc([C@@H]5CCCN5C(=O)[C@@H](NC(=O)OC)C(C)C)[nH]4)cc3)cc2)c[nH]1)C(C)C` (stereo partly drawn) [Compound 52] reads < 50 nM. On the same count and under the same terms, the result for `COC(=O)N[C@H](C(=O)N1C2CCC(C2)[C@H]1c1nc(-c2ccc(-c3ccc(-c4c[nH]c([C@@H]5C6CCC(C6)N5C(=O)[C@@H](NC(=O)OC)C(C)C)n4)cc3)cc2)c[nH]1)C(C)C` [Compound 24, dimethyl (2S,2′S)-1,1′-((3S,3′S)-3,3′-(4,4′-(biphenyl-4,4'-diyl)bis(1H-imidazole-4,2-diyl))bis(2-azabicyclo[2.2.1]heptane-3,2-diyl))bis(3-methyl-1-oxobutane-2,1-diyl)dicarbamate] reads < 5 nM; that for `CCCS(=O)(=O)N1CCN(Cc2ccc(C(=O)Nc3ccc(-c4ccc(-c5c[nH]c([C@@H]6CCCN6C(=O)[C@@H](NC(=O)OC)C(C)C)n5)cc4)cc3)cc2)CC1` [Compound 22, methyl (S)-3-methyl-1-oxo-1-((S)-2-(4-(4′-(4-((4-(propylsulfonyl)piperazin-1-yl)methyl)benzamido)biphenyl-4-yl)-1H-imidazol-2-yl)pyrrolidin-1-yl)butan-2-ylcarbamate], < 5 nM. On the same count and under the same terms, under `COC(=O)NC(C(=O)N1c2ccccc2C[C@H]1c1nc(-c2ccc(-c3ccc(-c4cnc([C@@H]5Cc6ccccc6N5C(=O)C(NC(=O)OC)C(C)C)[nH]4)cc3)cc2)c[nH]1)C(C)C` (stereo partly drawn) [Compound 25, dimethyl (2R,2′R)-1,1′-((2S,2′S)-2,2′-(5,5′-(biphenyl-4,4′-diyl)bis(1H-imidazole-5,2-diyl))bis(indoline-2,1-diyl))bis(3-methyl-1-oxobutane-2,1-diyl)dicarbamate] stands < 5 nM. As for `COC(=O)N[C@H](C(=O)N1CCC[C@H]1c1ncc(-c2cc3cc(-c4ccc(-c5cnc([C@@H]6C7CCC(C7)N6C(=O)[C@@H](NC(=O)OC)C(C)C)[nH]5)cc4)ccc3o2)[nH]1)C(C)C` (stereo partly drawn) [Compound 71], the EC50 was < 5 nM. Same read-out and setting: under `COC(=O)N[C@H](C(=O)N1CCCCCC1c1nc(-c2ccc(-c3ccc(-c4c[nH]c(C5C6CCC(C6)N5C(=O)[C@@H](NC(=O)OC)C(C)C)n4)cc3)cc2)c[nH]1)C(C)C` (stereo partly drawn) [Compound 63] stands < 5 nM; under `COC(=O)NC(C(=O)C1C(c2nc(-c3ccc(-c4ccc(-c5cnc([C@@H]6CCCN6C(=O)[C@@H](NC(=O)OC)C(C)C)[nH]5)cc4)cc3)c[nH]2)C2CC1[C@H](F)[C@@H]2F)C(C)C` (stereo partly drawn) [Compound 60], < 5 nM. Take `COC(=O)N[C@H](C(=O)N1C2CCC(C2)C1c1ncc(-c2ccc(-c3ccc(-c4cnc(C5C6CCC(C6)N5C(=O)[C@@H](NC(=O)OC)C(C)C)[nH]4)cc3)cc2)[nH]1)C(C)C` (stereo partly drawn) [Compound 56, dimethyl (2S,2′S)-1,1′-(3,3′-(5,5′-(biphenyl-4,4′-diyl)bis(1H-imidazole-5,2-diyl))bis(2-azabicyclo[2.2.1]heptane-3,2-diyl))bis(3-methyl-1-oxobutane-2,1-diyl)dicarbamate]: the concentration giving a half-maximal response (EC50) is < 5 nM. Regarding `COC(=O)N[C@H](C(=O)N1CCC[C@H]1c1ncc(-c2ccc(-c3ccc(-c4c[nH]c([C@@H]5C6CC([C@@H](O)[C@H]6O)N5C(=O)[C@@H](NC(=O)OC)C(C)C)n4)cc3)cc2)[nH]1)C(C)C` (stereo partly drawn) [Compound 46], the EC50 is < 50 nM.

Regarding `COC(=O)N[C@H](C(=O)N1CCc2ccc(NC(=O)c3ccc(-c4ccc(-c5cnc([C@@H]6CCCN6C(=O)[C@@H](NC(=O)OC)C(C)C)[nH]5)cc4)cc3)cc21)C(C)C` [Compound 41], the concentration for a half-maximal effect (EC50) was < 5 nM. Still for that read-out and setting: under `CCCS(=O)(=O)N1CCN(Cc2ccc(NC(=O)c3ccc(-c4ccc(C(=O)Nc5ccc(CN6CCN(S(=O)(=O)CCC)CC6)cc5)cc4)cc3)cc2)CC1` [Compound 17, N4,N4′-bis(4-((4-(propylsulfonyl)piperazin-1-yl)methyl)phenyl)biphenyl-4,4′-dicarboxamide] stands < 50 nM.

Consider `COC(=O)N[C@H](C(=O)N1CCC[C@H]1C1=NC(c2ccc(-c3ccc4[nH]c([C@@H]5C6CCC(C6)N5C(=O)[C@@H](NC(=O)OC)C(C)C)nc4c3)cc2)CN1)C(C)C` (stereo partly drawn) [Compound 65], for which the EC50 was < 5 nM. As for `COC(=O)NC(C(=O)N1C2CCC(C2)C1c1nc(-c2ccc(-c3ccc(-c4c[nH]c(C5C=CCN5C(=O)[C@@H](NC(=O)OC)C(C)C)n4)cc3)cc2)c[nH]1)C(C)C` (stereo partly drawn) [Compound 62], the EC50 is < 5 nM.

Consider `COC(=O)N[C@H](C(=O)N1C2CC(F)C(C2)C1c1ncc(-c2ccc(-c3ccc(-c4cnc([C@@H]5CCCN5C(=O)[C@@H](NC(=O)OC)C(C)C)[nH]4)cc3)cc2)[nH]1)C(C)C` (stereo partly drawn) [Compound 73], for which the EC50 is < 5 nM. Take `COC(=O)NC(C(=O)N1CCC[C@H]1c1ncc(-c2ccc(-c3ccc(-c4c[nH]c([C@@H]5Cc6ccccc6N5C(=O)C(NC(=O)OC)C(C)C)n4)cc3)cc2)[nH]1)C(C)C` (stereo partly drawn) [Compound 35]: the EC50 is < 5 nM. For the compound `COC(=O)N[C@H](C(=O)N1CCCCC1c1nc(-c2ccc(-c3ccc(-c4c[nH]c(C5C6CCC(C6)N5C(=O)[C@@H](NC(=O)OC)C(C)C)n4)cc3)cc2)c[nH]1)C(C)C` (stereo partly drawn) [Compound 49], the EC50 is < 5 nM. Same read-out and setting: the result for `CC(C)(C)OC(=O)N1c2ccccc2C[C@H]1c1nc(-c2ccc(-c3ccc(-c4cnc([C@@H]5Cc6ccccc6N5C(=O)OC(C)(C)C)[nH]4)cc3)cc2)c[nH]1` [Compound 27, (2S,2′S)-tert-butyl 2,2′-(5,5′-(biphenyl-4,4′-diyl)bis(1H-imidazole-5,2-diyl))diindoline-1-carboxylate] reads < 50 nM; that for `CC(C)(C)OC(=O)N1CC=CC1c1nc(-c2ccc(-c3ccc(-c4c[nH]c([C@@H]5C=CCN5C(=O)OC(C)(C)C)n4)cc3)cc2)c[nH]1` (stereo partly drawn) [Compound 20, (2R,2′R)-tert-butyl 2,2′-(4,4′-(biphenyl-4,4′-diyl)bis(1H-imidazole-4,2-diyl))bis(2,5-dihydro-1H-pyrrole-1-carboxylate)], < 100 nM. For the compound `COC(=O)N[C@H](C(=O)N1CCCCCC1c1nc(-c2ccc(-c3ccc(-c4c[nH]c(C5CCCN5C(=O)[C@@H](NC(=O)OC)C(C)C)n4)cc3)cc2)c[nH]1)C(C)C` (stereo partly drawn) [Compound 59], the EC50 is < 5 nM. Same read-out and setting: the result for `COC(=O)N[C@H](C(=O)N1C2CCC(C2)[C@H]1c1nc(-c2ccc3c(c2)Cc2cc(-c4c[nH]c([C@@H]5C6CCC(C6)N5C(=O)[C@@H](NC(=O)OC)C(C)C)n4)ccc2-3)c[nH]1)C(C)C` [Compound 75] reads < 5 nM; that for `COC(=O)N[C@H](C(=O)N1CCC[C@H]1c1ncc(-c2ccc(-c3ccc(-c4c[nH]c([C@@H]5C6CC([C@H](O)C6)N5C(=O)[C@@H](NC(=O)OC)C(C)C)n4)cc3)cc2)[nH]1)C(C)C` (stereo partly drawn) [Compound 45], < 50 nM.

Still in this test, the particulars now being: Hepatitis C virus, 72 h; Huh-7 HCV replicon-containing cells, three days; numeric cells; read-out: EC50.
Take `COC(=O)N[C@H](C(=O)N1C2CCC(C2)[C@H]1c1ncc(-c2ccc(Br)cc2)[nH]1)C(C)C` (stereo partly drawn) [Compound 54, methyl (2S)-1-((3S)-3-(5-(4-bromophenyl)-1H-imidazol-2-yl)-2-azabicyclo[2.2.1]heptan-2-yl)-3-methyl-1-oxobutan-2-ylcarbamate]: the EC50 was < 100 nM.

The test is the same for the next values; noted with them: Hepatitis C virus, Huh-7.
On to `COC(=O)NC(C(=O)N1c2ccccc2C[C@H]1c1nc(-c2ccc(-c3ccc(-c4cnc([C@@H]5Cc6ccccc6N5C(=O)C(NC(=O)OC)C(C)C)[nH]4)cc3)cc2)c[nH]1)C(C)C` (stereo partly drawn) [Compound 25, dimethyl (2R,2′R)-1,1′-((2S,2′S)-2,2′-(5,5′-(biphenyl-4,4′-diyl)bis(1H-imidazole-5,2-diyl))bis(indoline-2,1-diyl))bis(3-methyl-1-oxobutane-2,1-diyl)dicarbamate], for which the EC50 was ≤ 10000 nM.
